In brackets after ≈: the same amount, converted by molar mass.
Experiments:
Type in all cases: cell-based
[1] = tested on: E. coli K12 wild type; test: Survival test in 1-hexene saturated atmosphere on over-production of AcrA, AcrB and TolC; details: FIG. 3
Description: Six different dilutions of cultures (10 cells to 10^7 cells, left to right on the picture) were spotted in triplicate on an agar plate.
For agar plate based assays, cells were first streaked overnight and few colonies were used to inoculate a preculture of 6 mL of LB-Cm with glucose (2 g/L) and arabinose (5 mM). At OD60=1 at 37° C., the cultures were used to prepare a dilution series. Dilution 0 (D0) corresponds to the OD600, =1, and contains ˜10^9 cells/mL. Dilution 1 (D1) is a 10-fold dilution of D0, dilution 2 (D2) a 10-fold dilution of D1 up to dilution 5 (D5), which contains ˜10^4 cells/mL. 10 μL of each dilution was spotted in triplicate on LB-agar plates (single well plates, Thermo Scientific, Waltham, Mass.) containing 30 mL of LB-agar, Cm (30 mg/L), glucose (2 g/L) and arabinose (5 mM). […] The agar plates were then inverted over the lid, cells facing the olefin compound, sealed with parafilm, placed in the plastic bag (the original packaging for the petri dishes) and incubated for 2 days at room temperature. For 1-octene, a second condition, via overlaying 2 mL of compound on the top of the agar submerging the cells, was used. TolC overexpression impact was examined using the same method, but in this case, the LB media and the LB-agar were also supplemented with ampicillin (100 mg/L) and IPTG (100 μM).

[2] = tested on: E. coli K12; test: microbe, parasite or virus in culture; details: Escherichia coli, K12, 2 h, read-out: toxic dose (concentration of compound that decreased growth by half)
Description: A: The olefin compounds were added to different concentrations as indicated to an E. coli K12 culture at an OD600=0.2. OD was monitored after 2 hour at 37° C. The bars represent standard deviation between duplicates B: A survival test in presence of 1-octene was performed. Six different dilutions of a culture (10 cells to 10^7 cells, left to right) of E. coli K12 were spotted in triplicate on an agar plate. […] Plates were incubated at room temperature for 2 days and then opened to allow evaporation of the olefin.
In this example, toxicity of olefin compounds was evaluated. A toxic dose was defined as the concentration of compound that decreased growth by half.

[3] = tested on: E. coli DH1 ΔacrAB; test: Survival test of heterologous efflux pump library in 1-hexene saturated atmosphere; details: FIG. 7
Description: FIG. 7: Impact of homologous pumps on growth in presence of 1-hexene. Survival test of E. coli DH1 ΔacrAB producing either the AcrAB wild type or AcrAB homologs in a 1-hexene saturated atmosphere was performed. One dilution of cultures (10^6 cells) was spotted on agar plate. […] From left to right and from top to bottom of the picture, are culture of strains producing the pumps A. vinelandii (YP_002797425), A. vinelandii (MexF), A. vinelandii (YP_002801502), P. putida (TtgB), P. putida (NP_745594), P. putida (MexF), P. putida (NP_743067), P. aeruginosa (MexB), P. aeruginosa (NP_250708), P. aeruginosa (MexF), P. aeruginosa (NP_253065), P. fluorescens (YP_258460), P. fluorescens (YP_260376), P. fluorescens (YP_258159), P. fluorescens (YP_258289), R. metallidurans (YP_586997), R. melallidurans (YP_583276), R. metallidurans (YP_583852), M. aqueolei (YP_960752), M. aqueolei (YP_957870), P. syringae (YP_276144), P. syringae (YP_275089), P. syringae (MdtB), P. syringae (YP_273025), P. syringae (YP_273463), P. syringae (YP_272632), G. metallireducens (YP_383777), G. metallireducens (YP_384620), G. metallireducens (YP_385464), G. metallireducens (YP_384608), G. metallireducens (YP_386066), B. pertussis (NP_880739), D. vulgaris (YP_009662), S. putrefaciens (YP_001181626), A. borkumensis (YP_692684), B. borkumensis (YP_694242), P. haloplanktis (AcrB), S. halifaxensis (YP_001672433), S. halifaxensis (YP_001673423), S. halifaxensis (YP_001674385), E. coli (AcrEF), E. coli (AcrAB), E. coli (AcrD).
An existing library of heterologous efflux pumps in E. coli (Dunlop et al. 2011) was used to test if another pump may provide better tolerance to 1-hexene than the native E. coli AcrAB-TolC system. Using the agar plate-based method, this strain library constructed in a DH1 ΔacrAB background was tested and the survival compared in presence of 1-hexene relative to the strain expressing an equivalent plasmid-borne copy of the native acrAB genes.
To test the heterologous efflux pump library, the same method was used. […]

[4] = tested on: E. coli K12 ΔacrAB; test: Survival assay on agar plate in olefin saturated atmosphere, strains producing AcrAB or AcrB variants; details: single mutation AcrB variants, 1-hexene saturated atmosphere, FIG. 4A
Description: FIG. 2: impact of AcrAB production on growth, in presence of styrene 1-hexene, 1-octene and 1-nonene on cell growth. A: Different concentrations of styrene were added to an OD600=0.2 culture of E. coli K12 ΔacrAB containing the pABc (white) or the control plasmid p0c (black). OD density was monitored after 2 hours of growth at 37° C. The bars represent standard deviation between duplicates. B: A survival test in presence of 1-hexene, 1-octene, or 1-nonene saturated atmosphere was performed. Six different dilutions of cultures (10 cells to 10^7 cells, left to right on the figure) were spotted in triplicate on an agar plates. Plates were then exposed to the aforementioned chemicals.
FIG. 4: Impact of beneficial mutations on AcrB on tolerance to 1-hexene, A: Survival test of E. coli strain producing either the AcrB wild type or variants in a 1-hexene saturated atmosphere was performed. Two dilutions of cultures (Dilution 1: 10^5 cells and Dilution 2: 10^4 cells) were spotted in triplicate on an agar plate. B: Localization of the 6 beneficial mutations represented on the structure of a single monomer of AcrB or C: on the structure of the AcrB trimer.
FIG. 6: Impact of beneficial mutations on AcrB on tolerance to 1-hexene. A: Survival test of E. coli strain producing either the AcrB Wild type or variants with 1, 2 or several beneficial mutations, in an 1-hexene saturated atmosphere was performed. Two dilutions of cultures (Dilution 2: 10^4 cells and Dilution 3: 10^3 cells) were spotted in triplicate on an agar plate. B: Soluble fraction of total proteins from a culture of strains producing either the wild type, either the variant F617L, either the variant 6 (A279T, Q584R, F617L) were analyzed by western blot using anti-His antibody.
For agar plate based assays, cells were first streaked overnight and few colonies were used to inoculate a preculture of 6 mL of LB-Cm with glucose (2 g/L) and arabinose (5 mM). At OD60=1 at 37° C., the cultures were used to prepare a dilution series. Dilution 0 (D0) corresponds to the OD600, =1, and contains ˜10^9 cells/mL. Dilution 1 (D1) is a 10-fold dilution of D0, dilution 2 (D2) a 10-fold dilution of D1 up to dilution 5 (D5), which contains ˜10^4 cells/mL. 10 μL of each dilution was spotted in triplicate on LB-agar plates (single well plates, Thermo Scientific, Waltham, Mass.) containing 30 mL of LB-agar, Cm (30 mg/L), glucose (2 g/L) and arabinose (5 mM). Small containers (microfuge tube lids) were placed on the open lid of the agar plate and filled with 400 to 600 μL of 1-hexene or 1-octene or with 75 μL of 1-nonene. The agar plates were then inverted over the lid, cells facing the olefin compound, sealed with parafilm, placed in the plastic bag (the original packaging for the petri dishes) and incubated for 2 days at room temperature. For 1-octene, a second condition, via overlaying 2 mL of compound on the top of the agar submerging the cells, was used. TolC overexpression impact was examined using the same method, but in this case, the LB media and the LB-agar were also supplemented with ampicillin (100 mg/L) and IPTG (100 μM). […]

Molecule | tolerance to 1-hexene on over-expression in the wild type strain [1] | IC50 [2] | also measured
acrA and acrB and TolC: E. coli tripartite RND efflux pump AcrAB-TolC, over-expressed from pABc and pTolCa | increased tolerance |  | 
C=CCCCC [1-hexene] |  | 65 µg/mL (≈ 772 µM) | 
C=Cc1ccccc1 [styrene] |  | 110 µg/mL (≈ 1060 µM) | 
Pseudomonas putida KT2440: heterologous RND efflux pump, AcrB homolog from Pseudomonas putida KT2440 (protein, listed as Pseudomonas putida) MSKFFIDRPIFAWVIALVIMLVGALSILKLPINQYPSIAPPAIAIAVTYPGASAQTVQDTVVQVIEQQLNGIDNLRYVSSESNSDGSMTITATFEQGTNPDTAQVQVQNKLNLATPLLPQEVQQQGIRVTKAVKNFLLVIGLVSEDGSMTKDDLANYIVSNMQDPISRTAGVGDFQVFGAQYAMRIWLDPAKLNKFQLTPVDVKTAVAAQNVQVSSGQLGGLPALPGTQLNATIIGKTRLQTAEQFESILLKVNKDGSQVRLGDVAQVGLGGENYAVSAQFNGKPASGLAVKLATGANALDTAKALRETIKGLEPFFPPGVKAVFPYDTTPVVTESISGVIHTLIEAVVLVFLVMYLFLQNFRATIITTMTVPVVLLGTFGILAAAGFSINTLTMFAMVLAIGLLVDDAIVVVENVERVMSEEGLPPKEATKRSMEQIQGALVGIALVLSAVLLPMAFFGGSTGVIYRQFSITIVSAMGLSVLVALIFTPALCATMLKPLKKGEHHTAKGGFFGWFNRNFDRSVNGYERSVGAILRNKVPFLLAYALIVVGMIWLFARIPTAFLPEEDQGVLFAQVQTPAGSSAERTQVVVDQMREYLLKDEADTVSSVFTVNGFNFAGRGQSSGMAFIMLKPWDERSKENSVFALAQRAQQHFFTFRDAMVFAFAPPAVLELGNATGFDVFLQDRGGVGHEKLMEARNQFLAKAAQSKILSAVRPNGLNDEPQYQLTIDDERASALGVTIADINNTLSIALGASYVNDFIDRGRVKKVYIQGEPSARMSPEDLQKWYVRNGAGEMVPFSSFAKGEWTYGSPKLSRYNGVEAMEILGAPAPGYSTGEAMAEVERIAGELPSGIGFSWTGMSYEEKLSGSQMPALFALSVLFVFLCLAALYESWSIPIAVVLVVPLGIIGALIATSLRGLSNDVYFLVGLLTTIGLAAKNAILIVEFAKELHEQGRSLYDAAIEACRMRLRPIIMTSLAFILGVVPLTIASGAGAGSQHAIGTGVIGGMISATVLAIFWVPLFFVAVSSLFGSKEPEKDVTPENPRYEAGQ |  |  | tolerance to 1-hexene relative to the native E. coli acrAB-expressing strain [3]: equivalent tolerance
F1033Y: E. coli AcrB (SEQ ID NO:1) variant with amino acid mutation F1033Y (protein, E. coli) MPNFFIDRPIFAWVIAIIIMLAGGLAILKLPVAQYPTIAPPAVTISASYPGADAKTVQDTVTQVIEQNMNGIDNLMYMSSNSDSTGTVQITLTFESGTDADIAQVQVQNKLQLAMPLLPQEVQQQGVSVEKSSSSFLMVVGVINTDGTMTQEDISDYVAANMKDAISRTSGVGDVQLFGSQYAMRIWMNPNELNKFQLTPVDVITAIKAQNAQVAAGQLGGTPPVKGQQLNASIIAQTRLTSTEEFGKILLKVNQDGSRVLLRDVAKIELGGENYDIIAEFNGQPASGLGIKLATGANALDTAAAIRAELAKMEPFFPSGLKIVYPYDTTPFVKISIHEVVKTLVEAIILVFLVMYLFLQNFRATLIPTIAVPVVLLGTFAVLAAFGFSINTLTMFGMVLAIGLLVDDAIVVVENVERVMAEEGLPPKEATRKSMGQIQGALVGIAMVLSAVFVPMAFFGGSTGAIYRQFSITIVSAMALSVLVALILTPALCATMLKPIAKGDHGEGKKGFFGWFNRMFEKSTHHYTDSVGGILRSTGRYLVLYLIIVVGMAYLFVRLPSSFLPDEDQGVFMTMVQLPAGATQERTQKVLNEVTHYYLTKEKNNVESVFAVNGFGFAGRGQNTGIAFVSLKDWADRPGEENKVEAITMRATRAFSQIKDAMVFAFNLPAIVELGTATGFDFELIDQAGLGHEKLTQARNQLLAEAAKHPDMLTSVRPNGLEDTPQFKIDIDQEKAQALGVSINDINTTLGAAWGGSYVNDFIDRGRVKKVYVMSEAKYRMLPDDIGDWYVRAADGQMVPFSAFSSSRWEYGSPRLERYNGLPSMEILGQAAPGKSTGEAMELMEQLASKLPTGVGYDWTGMSYQERLSGNQAPSLYAISLIVVFLCLAALYESWSIPFSVMLVVPLGVIGALLAATFRGLTNDVYFQVGLLTTIGLSAKNAILIVEFAKDLMDKEGKGLIEATLDAVRMRLRPILMTSLAFILGVMPLVISTGAGSGAQNAVGTGVMGGMVTATVLAIFFVPVFFVVVRRRYSRKNEDIEHSHTVDHH |  |  | tolerance to 1-hexene relative to wild type AcrB sequence [4]: improvement in tolerance
TolC: outer membrane protein TolC encoded on plasmid pTolCa (protein, UniProt P02930 23-493, looked up) Outer membrane protein TolC: ENLMQVYQQARLSNPELRKSAADRDAAFEKINEARSPLLPQLGLGADYTYSNGYRDANGINSNATSASLQLTQSIFDMSKWRALTLQEKAAGIQDVTYQTDQQTLILNTATAYFNVLNAIDVLSYTQAQKEAIYRQLDQTTQRFNVGLVAITDVQNARAQYDTVLANEVTARNNLDNAVEQLRQITGNYYPELAALNVENFKTDKPQPVNALLKEAEKRNLSLLQARLSQDLAREQIRQAQDGHLPTLDLTASTGISDTSYSGSKTRGAAGTQYDDSNMGQNKVGLSFSLPIYQGGMVNSQVKQAQYNFVGASEQLESAHRSVVQTVRSSFNNINASISSINAYKQAVVSAQSSLDAMEAGYSVGTRTIVDVLDATTTLYNAKQELANARYNYLINQLNIKSALGTLNEQDLLALNNALSKPVSTNPENVAPQTPEQNAIADGYAPDSPAPVVQQTSARTTTSNGHNPFRN | does not improve the survival |  | 

Reference: patent US10513713B2, “Modified host cells having tolerance to α-olefins” (priority 2014, dated 2019)
